Source: US10882852B1, “3-vinylquinolines as cancer cells inhibitors” (King Abdulaziz University, priority 2020, dated 2021)
Values joined by “and” are separate entries in the source; they are usually repeats but may differ in a detail not shown here. Equal values may be shown once. Read-outs that look alike come from different tables or passages of the source.

Legend:
bovine brain tubulin = assay: Tubulin polymerization assay; assay type: biochemical; conditions: for IC50: inhibition of tubulin polymerization, tubulin at 10 μM, read-out: Tubulin assembly IC50 ± SD; for fold less active than CA-4 in tubulin assembly: versus CA-4
Procedure: The assembly of purified bovine tubulin was monitored using a kit, BK006, purchased from Cytoskeleton Inc., (Denver, Colo., USA). The assay was carried out in accordance with the manufacturer's instructions using the standard assay conditions. […] Light is scattered proportionally to the concentration of polymerized microtubules in the assay. Therefore, tubulin assembly was monitored turbidimetrically at 340 nm in a Spectramax 340 PC spectrophotometer (Molecular Devices, Sunnyvale, Calif., USA). The concentration that inhibits tubulin polymerization by 50% (IC50) was determined using area under the curve (AUC). The AUC of the untreated controls were considered as 100% polymerization. The IC50 value for each compound was computed using GraphPad Prism Software.

[1] = test system: MCF-7 breast cancer cells; assay: MTT cell viability assay, MCF-7; assay type: cell-based, human; conditions: Homo sapiens, MCF7, MCF-7, MTT
Procedure: (§1) All the human tumour cell lines MCF-7, HCT-116, HL-60 and HeLa were cultured in Dulbecco's Modified Eagle's Medium (DMEM) with 10% fetal bovine serum, 2 mM L-glutamine and 100 µg/mL penicillin/streptomycin. Cells were maintained at 37° C. in 5% CO2 in a humidified incubator. All cells were sub-cultured 3 times/week by trypsinization using TrypLE Express (1×).
(§2) The quinoline compounds were evaluated for antiproliferative effect using the MTT viability assay of four cancer cell lines (MCF-7, HCT-116, HL-60 and HeLa) and normal breast cells MCF-10A to calculate the relative IC50 values for each compound. Cells were seeded in triplicate in 96-well plates at a density of 10×10^3 cells/ml in a total volume of 200 μl per well. 0.1% of DMSO was used as a vehicle control. After this time, they were treated with 2 μl test compound which had been pre-prepared as stock solutions in ethanol to furnish the concentration range of study, 1 nM to 50 μM, and re-incubated for a further 72 h. The culture medium was then removed, and the cells washed with 100 μL phosphate buffered saline (PBS) and 50 μL MTT added, to reach a final concentration of 1 mg/mL MTT added. Cells were incubated for 2 h in darkness at 37° C. At this point solubilisation was begun through the addition of […] DMSO and the cells maintained at room temperature in darkness for 20 min to ensure thorough colour diffusion before reading the absorbance. Plates were incubated for 72 hours at 37° C.+5% CO2, The MTT (5 mg/mL in PBS) was added and incubated for another 4 h, the optical density was detected with a microplate reader at 570 nm. Results were expressed as percentage viability relative to vehicle control (100%). Dose response curves were plotted and IC50 values (concentration of drug resulting in 50% reduction in cell survival) were obtained using the commercial software package Prism (GraphPad Software, Inc., La Jolla, Calif., USA). All the experiments were repeated in at least three independent experiments.

[2] = test system: HeLa cervical cancer cells; assay: MTT cell viability assay, HeLa; assay type: cell-based, human; conditions: Homo sapiens
Procedure: as §1, §2

HL-60 leukemia cells = assay: MTT cell viability assay, HL-60; assay type: cell-based, human; conditions: Homo sapiens
Procedure: as §1, §2

[3] = test system: HCT-116 colon cancer cells; assay: MTT cell viability assay, HCT-116; assay type: cell-based, human; conditions: Homo sapiens, HCT-116, MTT
Procedure: as §1, §2

[4] = test system: MCF-7, HL-60, HCT-116 and HeLa cancer cells; assay: MTT antiproliferative activity over the panel of four cancer cell lines; assay type: cell-based, human; conditions: for antiproliferative activity (in words): four cancer cell lines, MTT
Procedure: as §1, §2

[5] = HL-60, 72 h, HL-60, MTT, 72 h, mean ± spread of three experiments, read-out: IC50 value (μM) HL-60

SMILES | melting point [°C] | IC50 (bovine brain tubulin) | other results
COc1cc(C2=NC(=Cc3cc4ccccc4nc3OC)C(=O)O2)cc(OC)c1OC [Compound 8a, 4-[(2-Methoxyquinolin-3-yl)methylene]-2-(3,4,5-trimethoxyphenyl)oxazol-5(4H)-one] | 215 to 217 | 13900 nM and 14000 nM | fold less active than CA-4 in tubulin assembly (bovine brain tubulin): 4 fold
COc1cc(C2=NC(=Cc3cc4cc(C)ccc4nc3OC)C(=O)O2)cc(OC)c1OC [Compound 8b, 4-[(2-Methoxy-6-methylquinolin-3-yl)methylene]-2-(3,4,5-trimethoxyphenyl)oxazol-5(4H)-one] | 218 to 220 | – | –
COc1cc(C2=NC(=Cc3cc4cccc(C)c4nc3OC)C(=O)O2)cc(OC)c1OC [Compound 8d, 4-[(2-Methoxy-8-methylquinolin-3-yl)methylene]-2-(3,4,5-trimethoxyphenyl)oxazol-5(4H)-one] | 236 to 238 | – | –
COc1ccc2nc(OC)c(/C=C3\N=C(c4cc(OC)c(OC)c(OC)c4)OC3=O)cc2c1 [Compound 8e] | 242 to 244 | 2200 nM and 2260 nM | IC50 ([1]; read-out: IC50 in MCF-7 (unit inferred)): 56.8 nM; IC50 ([2]; read-out: IC50 in HeLa (unit inferred)): 10.1 nM; IC50 (HL-60 leukemia cells; HL-60, HL-60, MTT, read-out: IC50 in HL-60 (unit inferred)): 0.0685 µM; IC50 ([3]; read-out: IC50 in HCT-116 (unit inferred)): 0.0318 µM
COc1ccc2cc(C=C3N=C(c4cc(OC)c(OC)c(OC)c4)OC3=O)c(OC)nc2c1 [Compound 8f, 4-[(2,7-Dimethoxyquinolin-3-yl)methylene]-2-(3,4,5-trimethoxyphenyl)oxazol-5(4H)-one] | 221 to 223 | – | –
COc1cc(C2=NC(=Cc3cc4ccc(OC(C)C)cc4nc3OC)C(=O)O2)cc(OC)c1OC [Compound 8g, 4-[(7-Isopropoxy-2-methoxyquinolin-3-yl)methylene]-2-(3,4,5-trimethoxyphenyl)oxazol-5(4H)-one] | 227 to 229 | 8230 nM | fold less active than CA-4 in tubulin assembly (bovine brain tubulin): 6 fold
COc1cc(C2=NC(=Cc3cc4ccc(OCc5ccccc5)cc4nc3OC)C(=O)O2)cc(OC)c1OC [Compound 8h, 4-[(7-(Benzyloxy)-2-methoxyquinolin-3-yl)methylene]-2-(3,4,5-trimethoxyphenyl)oxazol-5(4H)-one] | 247 to 249 | – | –
COc1cc(C2=NC(=Cc3cc4ccccc4nc3OC)C(=O)N2)cc(OC)c1OC [Compound 9a, 5-[(2-Methoxyquinolin-3-yl)methylene]-2-(3,4,5-trimethoxyphenyl)-3,5-dihydro-4H-imidazol-4-one] | 230 to 232 | – | –
COc1cc(C2=NC(=Cc3cc4cc(C)ccc4nc3OC)C(=O)N2)cc(OC)c1OC [Compound 9b, 5-[(2-Methoxy-6-methylquinolin-3-yl)methylene]-2-(3,4,5-trimethoxyphenyl)-3,5-dihydro-4H-imidazol-4-one] | 223 to 225 | – | antiproliferative activity (in words) [4]: potent activity in submicromolar range
COc1cc(C2=NC(=Cc3cc4ccc(C)cc4nc3OC)C(=O)N2)cc(OC)c1OC [Compound 9c, 5-[(2-Methoxy-7-methylquinolin-3-yl)methylene]-2-(3,4,5-trimethoxyphenyl)-3,5-dihydro-4H-imidazol-4-one] | 236 to 238 | 20200 nM and 20300 nM | IC50 ([4]; Homo sapiens, panel of HL-60, MCF-7, HCT-116, HeLa, read-out: IC50 values across the four cancer cell lines): 22300 to 73300 nM; antiproliferative activity (in words) [4]: potent activity in submicromolar range; fold less active than 8c in tubulin polymerization (bovine brain tubulin; versus oxazolone derivative 8c): 16 fold
COc1cc(C2=NC(=Cc3cc4cccc(C)c4nc3OC)C(=O)N2)cc(OC)c1OC [Compound 9d, 5-[(2-Methoxy-8-methylquinolin-3-yl)methylene]-2-(3,4,5-trimethoxyphenyl)-3,5-dihydro-4H-imidazol-4-one] | 233 to 235 | – | antiproliferative activity (in words) [4]: potent activity in submicromolar range
COc1ccc2nc(OC)c(C=C3N=C(c4cc(OC)c(OC)c(OC)c4)NC3=O)cc2c1 [Compound 9e, 5-[(2,6-Dimethoxyquinolin-3-yl)methylene]-2-(3,4,5-trimethoxyphenyl)-3,5-dihydro-4H-imidazol-4-one] | 253 to 255 | 1400 nM and 1480 nM | IC50 ([1]; read-out: IC50 in MCF-7): 42.9 nM; IC50 ([2]; read-out: IC50 in HeLa): 62.3 nM; IC50 (HL-60 leukemia cells; [5]): 0.272 ± 0.05 µM; IC50 ([3]; 72 h, read-out: IC50 value (μM) HCT-116): 0.085 ± 0.003 µM
COc1ccc2cc(C=C3N=C(c4cc(OC)c(OC)c(OC)c4)NC3=O)c(OC)nc2c1 [Compound 9f, 5-[(2,7-Dimethoxyquinolin-3-yl)methylene]-2-(3,4,5-trimethoxyphenyl)-3,5-dihydro-4H-imidazol-4-one] | 241 to 243 | – | IC50 ([1]; read-out: IC50 in MCF-7): 92.7 nM; IC50 ([2]; read-out: IC50 in HeLa): 101 nM; IC50 ([3]; read-out: IC50 in HCT-116): 0.188 µM
COc1cc(C2=NC(=Cc3cc4ccc(OC(C)C)cc4nc3OC)C(=O)N2)cc(OC)c1OC [Compound 9g, 5-((7-Isopropoxy-2-methoxyquinolin-3-yl)methylene)-2-(3,4,5-trimethoxyphenyl)-3,5-dihydro-4H-imidazol-4-one] | 238 to 240 | – | –
COc1cc(C2=NC(=Cc3cc4ccc(OCc5ccccc5)cc4nc3OC)C(=O)N2)cc(OC)c1OC [Compound 9h, 5-[(7-(Benzyloxy)-2-methoxyquinolin-3-yl)methylene]-2-(3,4,5-trimethoxyphenyl)-3,5-dihydro-4H-imidazol-4-one] | 259 to 261 | – | IC50 (HL-60 leukemia cells; [5]): 4.93 ± 0.26 µM
